{"source": "the supplement of paper PMC10307832", "assay_in_all_cases": "relative viability (nuclei count vs DMSO), 5 days (fraction); higher = more cells survive", "key": {"PC-3 [JPC-3]": {"test_system": "PC-3 [JPC-3]", "how_it_was_run": "(§1)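 Each reported value is a median over duplicate plates. It expresses relative viability: treated-well nuclei count divided by vehicle-well nuclei count. Lung cancer cell lines in 1536-well plates were dosed by pin tool a day after seeding, alone with one drug or with a fixed anchor-drug dose plus five library-drug doses (not always all listed) in √10 steps, and nuclei were counted after 5 days.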"}, "A-427": {"test_system": "A-427", "how_it_was_run": "as §1"}, "NCI-H1792": {"test_system": "NCI-H1792", "how_it_was_run": "as §1"}, "NCI-H522": {"test_system": "NCI-H522", "how_it_was_run": "as §1"}, "LC-2-ad": {"test_system": "LC-2-ad", "how_it_was_run": "as §1"}, "HOP-62": {"test_system": "HOP-62", "how_it_was_run": "as §1"}, "NCI-H1734": {"test_system": "NCI-H1734", "how_it_was_run": "as §1"}, "HCC-78": {"test_system": "HCC-78", "how_it_was_run": "as §1"}, "RERF-LC-KJ": {"test_system": "RERF-LC-KJ", "how_it_was_run": "as §1"}, "NCI-H2126": {"test_system": "NCI-H2126", "how_it_was_run": "as §1"}, "NCI-H358": {"test_system": "NCI-H358", "how_it_was_run": "as §1"}, "HCC-15": {"test_system": "HCC-15", "how_it_was_run": "as §1"}, "NCI-H1975": {"test_system": "NCI-H1975", "how_it_was_run": "as §1"}, "NCI-H1915": {"test_system": "NCI-H1915", "how_it_was_run": "as §1"}, "NCI-H2347": {"test_system": "NCI-H2347", "how_it_was_run": "as §1"}, "NCI-H1755": {"test_system": "NCI-H1755", "how_it_was_run": "as §1"}, "LXF-289": {"test_system": "LXF-289", "how_it_was_run": "as §1"}, "NCI-H647": {"test_system": "NCI-H647", "how_it_was_run": "as §1"}, "NCI-H2342": {"test_system": "NCI-H2342", "how_it_was_run": "as §1"}}}
{"compound": "COc1cc2nccc(Oc3ccc(NC(=O)Nc4cc(C)on4)c(Cl)c3)c2cc1OC", "note": "[Tivozanib] + NC(=O)Nc1cc(-c2cccc(F)c2)sc1C(=O)N[C@H]1CCCNC1 [AZD7762] (partner 0.2 µM)", "values": [{"measurement": "relative viability", "setting": "PC-3 [JPC-3]; first compound 0.01581 µM", "result": 0.857}, {"measurement": "relative viability", "setting": "PC-3 [JPC-3]; first compound 0.05 µM", "result": 0.927}, {"measurement": "relative viability", "setting": "PC-3 [JPC-3]; first compound 0.1581 µM", "result": 0.741}, {"measurement": "relative viability", "setting": "PC-3 [JPC-3]; first compound 0.5 µM", "result": 0.8}, {"measurement": "relative viability", "setting": "A-427; first compound 0.005 µM", "result": 0.75}, {"measurement": "relative viability", "setting": "A-427; first compound 0.01581 µM", "result": 0.795}, {"measurement": "relative viability", "setting": "A-427; first compound 0.05 µM", "result": 0.728}, {"measurement": "relative viability", "setting": "A-427; first compound 0.1581 µM", "result": 0.68}, {"measurement": "relative viability", "setting": "A-427; first compound 0.5 µM", "result": 0.719}, {"measurement": "relative viability", "setting": "NCI-H1792; first compound 0.005 µM", "result": 0.641}, {"measurement": "relative viability", "setting": "NCI-H1792; first compound 0.01581 µM", "result": 0.646}, {"measurement": "relative viability", "setting": "NCI-H1792; first compound 0.05 µM", "result": 0.509}, {"measurement": "relative viability", "setting": "NCI-H1792; first compound 0.5 µM", "result": 0.53}, {"measurement": "relative viability", "setting": "NCI-H522; first compound 0.005 µM", "result": 0.903}, {"measurement": "relative viability", "setting": "NCI-H522; first compound 0.01581 µM", "result": 0.793}, {"measurement": "relative viability", "setting": "NCI-H522; first compound 0.05 µM", "result": 0.784}, {"measurement": "relative viability", "setting": "NCI-H522; first compound 0.1581 µM", "result": 0.811}, {"measurement": "relative viability", "setting": "NCI-H522; first compound 0.5 µM", "result": 0.857}, {"measurement": "relative viability", "setting": "LC-2-ad; first compound 0.005 µM", "result": 0.821}, {"measurement": "relative viability", "setting": "LC-2-ad; first compound 0.01581 µM", "result": 0.846}, {"measurement": "relative viability", "setting": "LC-2-ad; first compound 0.05 µM", "result": 0.856}, {"measurement": "relative viability", "setting": "LC-2-ad; first compound 0.1581 µM", "result": 0.881}, {"measurement": "relative viability", "setting": "LC-2-ad; first compound 0.5 µM", "result": 0.815}, {"measurement": "relative viability", "setting": "HOP-62; first compound 0.005 µM", "result": 0.559}, {"measurement": "relative viability", "setting": "HOP-62; first compound 0.01581 µM", "result": 0.646}, {"measurement": "relative viability", "setting": "HOP-62; first compound 0.05 µM", "result": 0.383}, {"measurement": "relative viability", "setting": "HOP-62; first compound 0.1581 µM", "result": 0.429}, {"measurement": "relative viability", "setting": "HOP-62; first compound 0.5 µM", "result": 0.467}, {"measurement": "relative viability", "setting": "NCI-H1734; first compound 0.005 µM", "result": 0.515}, {"measurement": "relative viability", "setting": "NCI-H1734; first compound 0.01581 µM", "result": 0.524}, {"measurement": "relative viability", "setting": "NCI-H1734; first compound 0.05 µM", "result": 0.523}, {"measurement": "relative viability", "setting": "NCI-H1734; first compound 0.1581 µM", "result": 0.408}, {"measurement": "relative viability", "setting": "NCI-H1734; first compound 0.5 µM", "result": 0.451}, {"measurement": "relative viability", "setting": "HCC-78; first compound 0.005 µM", "result": 0.551}, {"measurement": "relative viability", "setting": "HCC-78; first compound 0.01581 µM", "result": 0.677}, {"measurement": "relative viability", "setting": "HCC-78; first compound 0.05 µM", "result": 0.674}, {"measurement": "relative viability", "setting": "HCC-78; first compound 0.1581 µM", "result": 0.497}, {"measurement": "relative viability", "setting": "HCC-78; first compound 0.5 µM", "result": 0.657}, {"measurement": "relative viability", "setting": "RERF-LC-KJ; first compound 0.005 µM", "result": 0.701}, {"measurement": "relative viability", "setting": "RERF-LC-KJ; first compound 0.01581 µM", "result": 0.925}, {"measurement": "relative viability", "setting": "RERF-LC-KJ; first compound 0.05 µM", "result": 1.07}, {"measurement": "relative viability", "setting": "RERF-LC-KJ; first compound 0.1581 µM", "result": 0.659}, {"measurement": "relative viability", "setting": "RERF-LC-KJ; first compound 0.5 µM", "result": 0.892}, {"measurement": "relative viability", "setting": "NCI-H2126; first compound 0.005 µM", "result": 1.06}, {"measurement": "relative viability", "setting": "NCI-H2126; first compound 0.01581 µM", "result": 0.936}, {"measurement": "relative viability", "setting": "NCI-H2126; first compound 0.05 µM", "result": 1.02}, {"measurement": "relative viability", "setting": "NCI-H2126; first compound 0.1581 µM", "result": 0.732}, {"measurement": "relative viability", "setting": "NCI-H2126; first compound 0.5 µM", "result": 1.01}, {"measurement": "relative viability", "setting": "NCI-H358; first compound 0.005 µM", "result": 0.449}, {"measurement": "relative viability", "setting": "NCI-H358; first compound 0.01581 µM", "result": 0.621}, {"measurement": "relative viability", "setting": "NCI-H358; first compound 0.05 µM", "result": 0.552}, {"measurement": "relative viability", "setting": "NCI-H358; first compound 0.1581 µM", "result": 0.513}, {"measurement": "relative viability", "setting": "NCI-H358; first compound 0.5 µM", "result": 0.469}, {"measurement": "relative viability", "setting": "HCC-15; first compound 0.005 µM", "result": 1.18}, {"measurement": "relative viability", "setting": "HCC-15; first compound 0.01581 µM", "result": 1.28}, {"measurement": "relative viability", "setting": "HCC-15; first compound 0.05 µM", "result": 1.34}, {"measurement": "relative viability", "setting": "HCC-15; first compound 0.1581 µM", "result": 1.29}, {"measurement": "relative viability", "setting": "HCC-15; first compound 0.5 µM", "result": 1.33}, {"measurement": "relative viability", "setting": "NCI-H1975; first compound 0.005 µM", "result": 0.594}, {"measurement": "relative viability", "setting": "NCI-H1975; first compound 0.01581 µM", "result": 0.742}, {"measurement": "relative viability", "setting": "NCI-H1975; first compound 0.05 µM", "result": 0.746}, {"measurement": "relative viability", "setting": "NCI-H1975; first compound 0.1581 µM", "result": 0.836}, {"measurement": "relative viability", "setting": "NCI-H1975; first compound 0.5 µM", "result": 0.595}, {"measurement": "relative viability", "setting": "NCI-H1915; first compound 0.005 µM", "result": 0.728}, {"measurement": "relative viability", "setting": "NCI-H1915; first compound 0.01581 µM", "result": 0.687}, {"measurement": "relative viability", "setting": "NCI-H1915; first compound 0.05 µM", "result": 0.711}, {"measurement": "relative viability", "setting": "NCI-H1915; first compound 0.1581 µM", "result": 0.717}, {"measurement": "relative viability", "setting": "NCI-H1915; first compound 0.5 µM", "result": 0.618}, {"measurement": "relative viability", "setting": "NCI-H2347; first compound 0.005 µM", "result": 0.73}, {"measurement": "relative viability", "setting": "NCI-H2347; first compound 0.01581 µM", "result": 0.836}, {"measurement": "relative viability", "setting": "NCI-H2347; first compound 0.05 µM", "result": 0.92}, {"measurement": "relative viability", "setting": "NCI-H2347; first compound 0.1581 µM", "result": 0.685}, {"measurement": "relative viability", "setting": "NCI-H2347; first compound 0.5 µM", "result": 0.709}, {"measurement": "relative viability", "setting": "NCI-H1755; first compound 0.005 µM", "result": 0.441}, {"measurement": "relative viability", "setting": "NCI-H1755; first compound 0.01581 µM", "result": 0.428}, {"measurement": "relative viability", "setting": "NCI-H1755; first compound 0.05 µM", "result": 0.444}, {"measurement": "relative viability", "setting": "NCI-H1755; first compound 0.1581 µM", "result": 0.457}, {"measurement": "relative viability", "setting": "NCI-H1755; first compound 0.5 µM", "result": 0.411}, {"measurement": "relative viability", "setting": "LXF-289; first compound 0.005 µM", "result": 1.05}, {"measurement": "relative viability", "setting": "LXF-289; first compound 0.01581 µM", "result": 1.03}, {"measurement": "relative viability", "setting": "LXF-289; first compound 0.05 µM", "result": 1.09}, {"measurement": "relative viability", "setting": "LXF-289; first compound 0.1581 µM", "result": 1.21}, {"measurement": "relative viability", "setting": "LXF-289; first compound 0.5 µM", "result": 1.06}, {"measurement": "relative viability", "setting": "NCI-H647; first compound 0.005 µM", "result": 0.367}, {"measurement": "relative viability", "setting": "NCI-H647; first compound 0.01581 µM", "result": 0.42}, {"measurement": "relative viability", "setting": "NCI-H647; first compound 0.05 µM", "result": 0.789}, {"measurement": "relative viability", "setting": "NCI-H647; first compound 0.1581 µM", "result": 0.377}, {"measurement": "relative viability", "setting": "NCI-H647; first compound 0.5 µM", "result": 0.369}, {"measurement": "relative viability", "setting": "NCI-H2342; first compound 0.005 µM", "result": 0.492}, {"measurement": "relative viability", "setting": "NCI-H2342; first compound 0.01581 µM", "result": 0.431}, {"measurement": "relative viability", "setting": "NCI-H2342; first compound 0.05 µM", "result": 0.609}, {"measurement": "relative viability", "setting": "NCI-H2342; first compound 0.5 µM", "result": 0.414}]}
